{"source": "patent US20250197396A1", "about": "“COMPOUNDS FOR INHIBITING INOSITOL HEXAKISPHOSPHATE KINASE (IP6K) AND METHODS OF USE THEREOF” (Lieber Institute, Inc., priority 2020, published 2025)", "data": [{"target": "IP6K1 (Homo sapiens (Human), UniProt Q92551)", "sequence (Q92551 whole entry, species assumed)": "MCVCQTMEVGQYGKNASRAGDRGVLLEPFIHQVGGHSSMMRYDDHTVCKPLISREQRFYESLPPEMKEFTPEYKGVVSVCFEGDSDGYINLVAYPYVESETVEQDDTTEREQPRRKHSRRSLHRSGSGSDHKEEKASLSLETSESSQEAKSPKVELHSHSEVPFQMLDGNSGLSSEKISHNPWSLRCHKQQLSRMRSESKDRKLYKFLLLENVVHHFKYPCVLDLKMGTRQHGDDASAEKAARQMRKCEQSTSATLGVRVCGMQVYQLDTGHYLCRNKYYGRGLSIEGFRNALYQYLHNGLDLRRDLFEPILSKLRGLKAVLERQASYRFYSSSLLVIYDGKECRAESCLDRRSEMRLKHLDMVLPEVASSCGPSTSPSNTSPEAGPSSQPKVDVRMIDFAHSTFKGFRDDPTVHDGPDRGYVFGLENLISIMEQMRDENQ", "test": "IP6K1 IC50 of compounds of Formula (IA) and Formula (IB)", "type": "biochemical", "conditions": "not given", "units": {"IC50": "µM"}, "values": [{"smiles": "O=C(O)c1ccc2[nH]c(=O)n(C3CCN(C(=O)c4ccccc4Cl)CC3)c2c1", "note": "[Cmpd 1b, 3-(1-(2-chlorobenzoyl)piperidin-4-yl)-2-oxo-2,3-dihydro-1H-benzo[d]imidazole-5-carboxylic acid]", "IP6K1 IC50": "+ +"}, {"smiles": "O=C(O)c1ccc2c(c1)C1(CCN(Cc3ccccc3Cl)CC1)C(=O)N2", "note": "[Cmpd 15a, 1′-(2-chlorobenzyl)-2-oxospiro[indoline-3,4′-piperidine]-5-carboxylic acid]", "IP6K1 IC50": "+ +"}, {"smiles": "O=C(O)c1ccc2c(c1)C1(CCN(C(=O)c3ncc(Cl)cc3Cl)CC1)C(=O)N2", "note": "[Cmpd 6a, 1′-(3,5-dichloropicolinoyl)-2-oxospiro[indoline-3,4′-piperidine]-5-carboxylic acid]", "IP6K1 IC50": "+ + +"}, {"smiles": "O=C(O)c1ccc2c(c1)C1(CCN(Cc3ccc(Cl)cc3)CC1)C(=O)N2", "note": "[Cmpd 5a, 1′-(4-chlorobenzyl)-2-oxospiro[indoline-3,4′-piperidine]-5-carboxylic acid]", "IP6K1 IC50": "+ +"}, {"smiles": "O=C(O)c1ccc2c(c1)C1(CCN(C(=O)c3ccccc3Cl)CC1)C(=O)N2", "note": "[Cmpd 14a, 1′-(2-chlorobenzoyl)-2-oxospiro[indoline-3,4′-piperidine]-5-carboxylic acid]", "IP6K1 IC50": "+ +"}, {"smiles": "O=C(O)c1ccc2c(c1)[nH]c(=O)n2C1CCN(C(=O)c2ccc(Cl)cc2Cl)CC1", "note": "[Cmpd 16b, 1-(1-(2,4-dichlorobenzoyl)piperidin-4-yl)-2-oxo-2,3-dihydro-1H-benzo[d]imidazole-5-carboxylic acid]", "IP6K1 IC50": "+ +"}, {"smiles": "O=C(O)c1ccc2[nH]c(=O)n(C3CCN(C(=O)c4ccc(Cl)cc4Cl)CC3)c2c1", "note": "[Cmpd 3b, 3-(1-(2,4-dichlorobenzoyl)piperidin-4-yl)-2-oxo-2,3-dihydro-1H-benzo[d]imidazole-5-carboxylic acid]", "IP6K1 IC50": "+ + +"}, {"smiles": "O=C(O)c1ccc2c(c1)C1(CCN(C(=O)C3CC3)CC1)C(=O)N2", "note": "[Cmpd 10a, 1′-(cyclopropanecarbonyl)-2-oxospiro[indoline-3,4′-piperidine]-5-carboxylic acid]", "IC50": "3 to 30"}, {"smiles": "CC(=O)N1CCC2(CC1)C(=O)Nc1ccc(C(=O)O)cc12", "note": "[Cmpd 12a, 1′-acetyl-2-oxospiro[indoline-3,4′-piperidine]-5-carboxylic acid]", "IC50": "3 to 30"}, {"smiles": "O=C(O)c1ccc2[nH]c(=O)n(C3CN(C(=O)c4ccc(Cl)cc4Cl)C3)c2c1", "note": "[Cmpd 10b, 3-(1-(2,4-dichlorobenzoyl)azetidin-3-yl)-2-oxo-2,3-dihydro-1H-benzo[d]imidazole-5-carboxylic acid]", "IP6K1 IC50": "+ +"}, {"smiles": "O=C(O)c1ccc2[nH]c(=O)n(CC3CCN(C(=O)c4ccc(Cl)cc4Cl)C3)c2c1", "note": "(stereo not drawn) [Cmpd 19b, 3-((1-(2,4-dichlorobenzoyl)pyrrolidin-3-yl)methyl)-2-oxo-2,3-dihydro-1H-benzo[d]imidazole-5-carboxylic acid]", "IP6K1 IC50": "+ +"}, {"smiles": "O=C(O)c1ccc2c(c1)C1(CCN(C(=O)c3ccc(C(F)(F)F)cc3)CC1)C(=O)N2", "note": "[Cmpd 8a, 2-oxo-1′-(4-(trifluoromethyl)benzoyl)spiro[indoline-3,4′-piperidine]-5-carboxylic acid]", "IP6K1 IC50": "+ + +"}, {"smiles": "O=C(O)c1ccc2c(c1)C1(CCN(C(=O)c3ccc(Cl)cc3Cl)CC1)C(=O)N2", "note": "[Cmpd 17a, 1′-(2,4-dichlorobenzoyl)-2-oxospiro[indoline-3,4′-piperidine]-5-carboxylic acid]", "IP6K1 IC50": "+ + +"}, {"smiles": "O=C(O)c1ccc2[nH]c(=O)n(CCCOc3ncc(Cl)cc3Cl)c2c1", "note": "[Cmpd 9b, 3-(3-((3,5-dichloropyridin-2-yl)oxy)propyl)-2-oxo-2,3-dihydro-1H-benzo[d]imidazole-5-carboxylic acid]", "IP6K1 IC50": "+ + +"}, {"smiles": "O=C(O)c1ccc2c(c1)C1(CCN(C(=O)Cc3ccc(Cl)cc3)CC1)C(=O)N2", "note": "[Cmpd 4a, 1′-(2-(4-chlorophenyl)acetyl)-2-oxospiro[indoline-3,4′-piperidine]-5-carboxylic acid]", "IP6K1 IC50": "+ +"}, {"smiles": "O=C(O)c1ccc2[nH]c(=O)n(C3CN(Cc4ccc(Cl)cc4Cl)C3)c2c1", "note": "[Cmpd 11b, 3-(1-(2,4-dichlorobenzyl)azetidin-3-yl)-2-oxo-2,3-dihydro-1H-benzo[d]imidazole-5-carboxylic acid]", "IP6K1 IC50": "+ +"}, {"smiles": "O=C(O)c1ccc2[nH]c(=O)n(CCOc3ccc(Cl)cc3)c2c1", "note": "[Cmpd 8b, 3-(2-(4-chlorophenoxy)ethyl)-2-oxo-2,3-dihydro-1H-benzo[d]imidazole-5-carboxylic acid]", "IP6K1 IC50": "+ +"}, {"smiles": "O=C(O)c1ccc2[nH]c(=O)n([C@@H]3CCN(Cc4ccc(Cl)cc4Cl)C3)c2c1", "note": "[Cmpd 15b, (R)-3-(1-(2,4-dichlorobenzyl)pyrrolidin-3-yl)-2-oxo-2,3-dihydro-1H-benzo[d]imidazole-5-carboxylic acid]", "IP6K1 IC50": "+ +"}, {"smiles": "COC(=O)c1ccc2c(c1)C1(CCN(C(=O)c3ccc(Cl)cc3)CC1)C(=O)N2", "note": "[Cmpd 3a, Methyl 1′-(4-chlorobenzoyl)-2-oxospiro[indoline-3,4′-piperidine]-5-carboxylate]", "IC50": "3 to 30"}, {"smiles": "O=C(O)c1ccc2c(c1)C1(CCN(C(=O)c3ccc(Cl)cc3)CC1)C(=O)N2", "note": "[Cmpd 2a, 1′-(4-chlorobenzoyl)-2-oxospiro[indoline-3,4′-piperidine]-5-carboxylic acid]", "IP6K1 IC50": "+ + +"}, {"smiles": "CC(C)C(=O)N1CCC2(CC1)C(=O)Nc1ccc(C(=O)O)cc12", "note": "[Cmpd 13a, 1′-isobutyryl-2-oxospiro[indoline-3,4′-piperidine]-5-carboxylic acid]", "IC50": "3 to 30"}, {"smiles": "O=C(O)c1ccc2c(c1)C1(CCN(C(=O)Nc3ccc(Cl)cc3)CC1)C(=O)N2", "note": "[Cmpd 7a, 1′-((4-chlorophenyl)carbamoyl)-2-oxospiro[indoline-3,4′-piperidine]-5-carboxylic acid]", "IP6K1 IC50": "+ + +"}, {"smiles": "O=C(O)c1ccc2c(c1)C1(CCN(C(=O)COc3ccc(Cl)cc3)CC1)C(=O)N2", "note": "[Cmpd 9a, 1′-(2-(4-chlorophenoxy)acetyl)-2-oxospiro[indoline-3,4′-piperidine]-5-carboxylic acid]", "IP6K1 IC50": "+ +"}, {"smiles": "O=C(O)c1ccc2[nH]c(=O)n([C@H]3CCN(Cc4ccc(Cl)cc4Cl)C3)c2c1", "note": "[Cmpd 13b, (S)-3-(1-(2,4-dichlorobenzyl)pyrrolidin-3-yl)-2-oxo-2,3-dihydro-1H-benzo[d]imidazole-5-carboxylic acid]", "IP6K1 IC50": "+ +"}, {"smiles": "O=C(O)c1ccc2[nH]c(=O)n([C@H]3CC[C@H](Oc4ncc(Cl)cc4Cl)CC3)c2c1", "note": "[Cmpd 5b, 3-((1r,4r)-4-((3,5-dichloropyridin-2-yl)oxy)cyclohexyl)-2-oxo-2,3-dihydro-1H-benzo[d]imidazole-5-carboxylic acid]", "IP6K1 IC50": "+ + +"}, {"smiles": "O=C(O)c1cc2c(cc1F)[nH]c(=O)n2[C@H]1CC[C@H](Oc2ncc(Cl)cc2Cl)CC1", "note": "[Cmpd 7b, 3-((1r,4r)-4-((3,5-dichloropyridin-2-yl)oxy)cyclohexyl)-6-fluoro-2-oxo-2,3-dihydro-1H-benzo[d]imidazole-5-carboxylic acid]", "IP6K1 IC50": "+ + +"}, {"smiles": "O=C(O)c1ccc2[nH]c(=O)n(CC3CCN(Cc4ccc(Cl)cc4Cl)C3)c2c1", "note": "(stereo not drawn) [Cmpd 18b, 3-((1-(2,4-dichlorobenzyl)pyrrolidin-3-yl)methyl)-2-oxo-2,3-dihydro-1H-benzo[d]imidazole-5-carboxylic acid]", "IC50": "3 to 30"}, {"smiles": "O=C(O)c1ccc2[nH]c(=O)n([C@H]3CC[C@@H](Oc4ncc(Cl)cc4Cl)CC3)c2c1", "note": "[Cmpd 6b, 3-((1s,4s)-4-((3,5-dichloropyridin-2-yl)oxy)cyclohexyl)-2-oxo-2,3-dihydro-1H-benzo[d]imidazole-5-carboxylic acid]", "IP6K1 IC50": "+ + +"}, {"smiles": "O=C(O)c1ccc2[nH]c(=O)n([C@@H]3CCN(C(=O)c4ccc(Cl)cc4Cl)C3)c2c1", "note": "[Cmpd 14b, (R)-3-(1-(2,4-dichlorobenzoyl)pyrrolidin-3-yl)-2-oxo-2,3-dihydro-1H-benzo[d]imidazole-5-carboxylic acid]", "IP6K1 IC50": "+ +"}, {"smiles": "O=C(O)c1ccc2c(c1)C1(CCN(S(=O)(=O)c3ccc(Cl)cc3)CC1)C(=O)N2", "note": "[Cmpd 1a, 1′-((4-chlorophenyl)sulfonyl)-2-oxospiro[indoline-3,4′-piperidine]-5-carboxylic acid]", "IP6K1 IC50": "+ +"}, {"smiles": "O=C(O)c1ccc2[nH]c(=O)n([C@H]3CCN(C(=O)c4ccc(Cl)cc4Cl)C3)c2c1", "note": "[Cmpd 12b, (S)-3-(1-(2,4-dichlorobenzoyl)pyrrolidin-3-yl)-2-oxo-2,3-dihydro-1H-benzo[d]imidazole-5-carboxylic acid]", "IP6K1 IC50": "+ +"}]}, {"test_system": "Mice treated with HFD", "test": "not given", "conditions": "HFD 8 weeks then daily intraperitoneal 20 mg/kg TNP and HFD for 18 days; cited from earlier work", "values": [{"smiles": "O=[N+]([O-])c1ccc(CNc2nc(NCc3cccc(C(F)(F)F)c3)nc3nc[nH]c23)cc1", "note": "[TNP, N2-(m-trifluorobenzyl)-N6-(p-nitrobenzyl)purine]", "glucose tolerance and insulin sensitivity": "improved", "serum insulin levels": "lower"}]}]}
